Test results from patent EP4563149A1, “LURBINECTEDIN, ECUBECTEDIN AND A RELATED COMPOUND FOR USE IN THE TREATMENT OF SKIN CANCERS” (Pharma Mar, S.A., priority 2023, dated 2025).
Read-outs that look alike come from different tables or passages of the source.

What was measured:
all melanoma cells = assay: Cell viability assay (PrestoBlue), summary over all melanoma cells; assay type: cell-based; details: Homo sapiens, read-out: IC50 values
melanoma cells = assay: Cell proliferation by CellTrace Violet flow cytometry; assay type: cell-based, human; details: IC50 concentrations, compared to DMSO
Experimental: After 48h of incubation, cells were rinsed and incubated with AnnexinV-APC (BD Biosciences). Cell proliferation and apoptosis were detected on a BD LSRFortessaTM Flow Cytometer. Data were analyzed with FlowJo software. To define slow proliferating or apoptotic cells: it was considered that slow proliferating cells represented the 30% of cells with the highest concentration of CellTrace Violet signal in the DMSO control. […] For apoptotic cells, it was considered the 20% of cells with the highest signal of AnnexinV-APC in the DMSO control.

[1] = tested on: 501mel, 501mel^VemuR or SKMEL28 melanoma cells; details: weekly IV 1.2mg/kg
Experimental: To investigate the effects of the aforementioned tested drugs in living organisms, it was decided to examine the impact of PM14 and Compound IA on melanoma cell-derived xenograft (CDXs) mouse models. Human 501mel, 501mel^VemuR or SKMEL28 melanoma cells were subcutaneously implanted into the right flank of NSG mice.
Tumor volumes were monitored following weekly IV treatments of PM14 or Comp IA at a concentration of 1.2mg/kg. Treatments commenced (Day 0) when the tumors reached 150 mm^3 in female NSG mice aged 4 to 6 weeks (N=8/group).

501 mel^Vemur cell line = details: 1.2 mg/kg intravenous
Experimental: (§1) Female athymic nu/nu mice (Harlan Laboratories Models, S.L. Barcelona, Spain or Envigo, Spain) were utilized for all experiments. Animal were housed in individually ventilated cages Sealsafe® Plus, Techmplast S.P.A.), up to ten per cage on a 12-hour light-dark cycle at 21-23 °C and 40-60 % humidity. Mice were allowed free access to irradiated standard rodent diet (Tecklad 2914C) and sterilized water. Animals were acclimated for at least 5 days prior to tumor implantation with a tumor cell suspension.
(§2) The cell line used are: • 501mel • IGR-37 • SK-Mel-28 • WM-266-4 • LOX-IMVI • 501mel^Vemur
(§3) In xenograft studies with cell lines: • Tumour volume was calculated using the equation […], where a: length (longest diameter) and b: width (shortest diameter) were measured in mm by using digital caliper (Fowler Sylvac, S235PAT). Tumour dimensions and body weights were recorded 2-3 times per week starting from the first day of treatment. • When tumors reached ca. 150-250 mm^3, tumour bearing animals (N = 8-10/group) were randomly allocated into the treatment groups, based on body weight and tumour measurements by using NewLab Oncology Software (version 2.25.06.00). • Comparison between median tumour volume of treated and placebo groups was used for evaluation of the antitumoural efficacy. • Animals were euthanized when their tumours reached ca. 1,500 mm^3 and/or severe necrosis was seen.
(§4) Treatments producing >20 % lethality and/or 20% net body weight loss were considered toxic.
(§5) In these experiments, PM14 and Compound IA, as well as placebo, were intravenously administered once per week for 3 consecutive weeks, on days 0, 7 and 14, whenever it was possible.

[2] = tested on: Sk-mel-28 melanoma xenografts; details: 1.2 mg/kg intravenous
Experimental: as §1, §2, §3, §4, §5
Table 6. Tumour volume evaluation in Sk-mel-28 melanoma xenografts with PM14 and Compound IA and placebo.

[3] = tested on: WM-266-4 melanoma xenografts; details: 1.2 mg/kg intravenous
Experimental: as §1, §2, §3, §4, §5
Table 7. Tumour volume evaluation in WM-266-4 melanoma xenografts with PM14 and Compound IA and placebo.

[4] = tested on: xenografts with various melanoma cell lines; details: different xenografts, 1.2 mg/kg intravenous once per week for 3 weeks
Experimental: as §1, §2
as §3, with “seen. […]” for “seen.”

Hermes3A = assay: Cell viability assay (PrestoBlue), 72h
Experimental: (§6) Cells were grown at 37°C in 5% CO2 (10% for Hermes 3A) and were regularly checked for mycoplasma contamination. […] Melanoma IGR cell lines (IGR37 and IGR39) were grown in RPMI w/o HEPES (Gibco, Invitrogen) supplemented with 15% FCS and gentamycin.
(§7) To determine the IC50 (half maximal inhibitory concentration) of these cells to various inhibitors, cell viability assays were performed.
(§8) After 72h of treatment with different concentrations of the compounds, cells were treated with PrestoBlue reagent according to the manufacturer's instructions. The absorbance per well was measured with a Cellinsight CX5 microplate reader. Data were analyzed using Prism9 statistical software.

501mel = assay: Cell viability assay (PrestoBlue), 72h; details: Homo sapiens
Experimental: Cells were grown at 37°C in 5% CO2 (10% for Hermes 3A) and were regularly checked for mycoplasma contamination. […] Melanoma cell lines 501mel and SKmel28 were grown in RPMI w/o HEPES (Gibco, Invitrogen) supplemented with 10% FCS and gentamycin. Vemurafenib-resistant cells (501melVemuR and MM074VemuR) were additionally supplemented with 1.5 µM of vemurafenib. Melanoma IGR cell lines (IGR37 and IGR39) were grown in RPMI w/o HEPES (Gibco, Invitrogen) supplemented with 15% FCS and gentamycin.
as §7, §8

501mel^VemuR = assay: Cell viability assay (PrestoBlue), 72h; details: Homo sapiens
Experimental: Cells were grown at 37°C in 5% CO2 (10% for Hermes 3A) and were regularly checked for mycoplasma contamination. MM patient-derived short-term melanoma cultures (MM011, MM074, MM117, MM029, MM047, MM099) were grown in HAM-F10 (Gibco, Invitrogen) supplemented with 10% Fetal Calf Serum (FCS), 25 mM HEPES, 5.2 mM GLUTAMAX and penicillin-streptomycin. Melanoma cell lines 501mel and SKmel28 were grown in RPMI w/o HEPES (Gibco, Invitrogen) supplemented with 10% FCS and gentamycin. Vemurafenib-resistant cells (501melVemuR and MM074VemuR) were additionally supplemented with 1.5 µM of vemurafenib. Melanoma IGR cell lines (IGR37 and IGR39) were grown in RPMI w/o HEPES (Gibco, Invitrogen) supplemented with 15% FCS and gentamycin.
as §7, §8

MM047 = assay: Cell viability assay (PrestoBlue), 72h; details: Homo sapiens
Experimental: as §6, §7, §8

IGR37 = assay: Cell viability assay (PrestoBlue), 72h, last line of Table 2; details: Homo sapiens, IGR-37, 72 h
Experimental: as §6, §7, §8

`COc1c(C)cc2c(c1O)[C@@H]1[C@@H]3[C@@H]4SC[C@]5(N[C@H](CO)Cc6c5oc5ccccc65)C(=O)OC[C@@H](c5c6c(c(C)c(OC(C)=O)c54)OCO6)N3[C@@H](O)[C@H](C2)N1C` [Compound IA] was tested, and the IC50 (all melanoma cells) was 0.3 to 4.73 nM, the melanoma cell proliferation (melanoma cells) was “significant inhibition” and the “antitumor activity (tumor volumes) versus placebo-treated group” value ([1]; N=8/group) was “statistically significant difference”. The overall survival ([1]; three CDX models) was “significant increase”, the “Median Tumour Volume” value (501 mel^Vemur cell line; days 0, 7 and 14, day 0) was 160.3 mm^3 and the “Median Tumour Volume” value (501 mel^Vemur cell line; days 0, 7 and 14, day 2) was 249 mm^3. The “Median Tumour Volume” value (501 mel^Vemur cell line; days 0, 7 and 14, day 4) was 306.8 mm^3, the “Median Tumour Volume” value (501 mel^Vemur cell line; days 0, 7 and 14, day 7) was 378.8 mm^3 and the “Median Tumour Volume” value (501 mel^Vemur cell line; days 0, 7 and 14, day 9) was 417.2 mm^3. The “Median Tumour Volume” value (501 mel^Vemur cell line; days 0, 7 and 14, day 11) was 453.7 mm^3, the “Median Tumour Volume” value (501 mel^Vemur cell line; days 0, 7 and 14, day 14) was 490.8 mm^3 and the “Median Tumour Volume” value (501 mel^Vemur cell line; days 0, 7 and 14, day 16) was 517.4 mm^3. The “Median Tumour Volume” value (501 mel^Vemur cell line; days 0, 7 and 14, day 18) was 572.1 mm^3, the “Median Tumour Volume” value (501 mel^Vemur cell line; days 0, 7 and 14, day 21) was 666.9 mm^3 and the “Median Tumour Volume” value (501 mel^Vemur cell line; days 0, 7 and 14, day 23) was 703.5 mm^3. For the same molecule, the “Median Tumour Volume” value (501 mel^Vemur cell line; days 0, 7 and 14, day 25) was 739.3 mm^3, the “Median Tumour Volume” value (501 mel^Vemur cell line; days 0, 7 and 14, day 28) was 861.2 mm^3 and the “Median Tumour Volume” value (501 mel^Vemur cell line; days 0, 7 and 14, day 30) was 986.4 mm^3. The “Median Tumour Volume” value (501 mel^Vemur cell line; days 0, 7 and 14, day 35) was 997.4 mm^3, the “Median Tumour Volume” value (501 mel^Vemur cell line; days 0, 7 and 14, day 42) was 900.1 mm^3 and the “Median Tumour Volume” value (501 mel^Vemur cell line; days 0, 7 and 14, day 44) was 982.3 mm^3. The “Median Tumour Volume” value (501 mel^Vemur cell line; days 0, 7 and 14, day 46) was 1080 mm^3, the “Median Tumour Volume” value (501 mel^Vemur cell line; days 0, 7 and 14, day 49) was 1,169.4 mm^3 and the “Median Tumour Volume” value (501 mel^Vemur cell line; days 0, 7 and 14, day 53) was 1,262.1 mm^3. The “Median Tumour Volume” value (501 mel^Vemur cell line; days 0, 7 and 14, day 56) was 1,521.8 mm^3, the “Median Tumour Volume” value ([2]; days 0, 7 and 14, day 0) was 152.3 mm^3 and the “Median Tumour Volume” value ([2]; days 0, 7 and 14, day 2) was 179.8 mm^3. The “Median Tumour Volume” value ([2]; days 0, 7 and 14, day 4) was 232.7 mm^3, the “Median Tumour Volume” value ([2]; days 0, 7 and 14, day 7) was 302 mm^3 and the “Median Tumour Volume” value ([2]; days 0, 7 and 14, day 9) was 397.8 mm^3. For the same molecule, the “Median Tumour Volume” value ([2]; days 0, 7 and 14, day 11) was 476.6 mm^3, the “Median Tumour Volume” value ([2]; days 0, 7 and 14, day 14) was 551.1 mm^3 and the “Median Tumour Volume” value ([2]; days 0, 7 and 14, day 16) was 585.8 mm^3. The “Median Tumour Volume” value ([2]; days 0, 7 and 14, day 18) was 676.6 mm^3, the “Median Tumour Volume” value ([2]; days 0, 7 and 14, day 21) was 748.7 mm^3 and the “Median Tumour Volume” value ([2]; days 0, 7 and 14, day 23) was 866.2 mm^3. For the same molecule, the “Median Tumour Volume” value ([2]; days 0, 7 and 14, day 25) was 906.6 mm^3, the “Median Tumour Volume” value ([2]; days 0, 7 and 14, day 28) was 1,203.1 mm^3 and the “Median Tumour Volume” value ([2]; days 0, 7 and 14, day 32) was 1,331.3 mm^3. For the same molecule, the “Median Tumour Volume” value ([2]; days 0, 7 and 14, day 35) was 1,593.1 mm^3, the “Median Tumour Volume” value ([3]; days 0, 7 and 14, day 0) was 169.5 mm^3 and the “Median Tumour Volume” value ([3]; days 0, 7 and 14, day 3) was 109.8 mm^3. The “Median Tumour Volume” value ([3]; days 0, 7 and 14, day 5) was 100 mm^3, the “Median Tumour Volume” value ([3]; days 0, 7 and 14, day 7) was 104.4 mm^3 and the “Median Tumour Volume” value ([3]; days 0, 7 and 14, day 10) was 97.8 mm^3. The “Median Tumour Volume” value ([3]; days 0, 7 and 14, day 12) was 89.2 mm^3, the “Median Tumour Volume” value ([3]; days 0, 7 and 14, day 14) was 94.9 mm^3 and the “Median Tumour Volume” value ([3]; days 0, 7 and 14, day 17) was 68.8 mm^3. The “Median Tumour Volume” value ([3]; days 0, 7 and 14, day 19) was 75.7 mm^3, the “Median Tumour Volume” value ([3]; days 0, 7 and 14, day 21) was 95.2 mm^3 and the “Median Tumour Volume” value ([3]; days 0, 7 and 14, day 24) was 75.7 mm^3. For the same molecule, the “Median Tumour Volume” value ([3]; days 0, 7 and 14, day 26) was 96.7 mm^3, the “Median Tumour Volume” value ([3]; days 0, 7 and 14, day 28) was 99.4 mm^3 and the “Median Tumour Volume” value ([3]; days 0, 7 and 14, day 34) was 134.3 mm^3. The “Median Tumour Volume” value ([3]; days 0, 7 and 14, day 41) was 275.2 mm^3, the “Median Tumour Volume” value ([3]; days 0, 7 and 14, day 45) was 312.1 mm^3 and the “Median Tumour Volume” value ([3]; days 0, 7 and 14, day 48) was 461.7 mm^3. The “Median Tumour Volume” value ([3]; days 0, 7 and 14, day 55) was 749.7 mm^3, the “Median Tumour Volume” value ([3]; days 0, 7 and 14, day 62) was 985.3 mm^3 and the “Median Tumour Volume” value ([3]; days 0, 7 and 14, day 69) was 1,145.3 mm^3. The “tumor volume compared to the placebo” value [4] was “reduction of the volume tumor”, the “sensitivity of non-cancerous Hermes3A immortalized melanocytes compared with the melanoma cells” value (Hermes3A; Hermes3A versus melanoma cells) was “less sensitive” and the IC50 (Hermes3A; Homo sapiens, Melanocyte, 72 h) was 4.93 nM. It also gave an IC50 (501mel) of 1.74 nM, an IC50 (501mel^VemuR) of 2.13 nM and an IC50 (MM047) of 1.38 nM. The IC50 (IGR37) was 0.84 nM.
